# Measured values published in patent publication US7417053B2, “Pyrazolo[1,5-a]pyridine derivatives or pharmaceutically acceptable salts thereof” (Teijin Pharma Limited, priority 2005, dated 2008).
# pIC50: −log10 of the molar value. Counter-ions that a name gives are not always drawn.
# Biological target: recombinant human MAPKAP-K2 (Homo sapiens, UniProt P49137)
# Assay: Inhibitory activity against MAPKAP-K2 enzyme (33P-ATP peptide phosphorylation)
# Format: biochemical
# Details: recombinant human MAPKAP-K2, ATP 20 μmol/L solution, room temperature 30 min; read-out: Activity Strength (MAPKAP-K2 IC50 value)
# Method: General Measurement Method for Determining the Inhibitory Activity Against MAPKAP-K2 enzyme
# (Preparation of Solutions of Compounds)
# Each compound was dissolved in DMSO to prepare a solution with a concentration of 20 mmol/L and this solution was stored at −20° C. This stock solution was diluted with DMSO successively to prepare solutions with 200-fold concentrations of a necessary range. These solutions were further diluted with water at a ratio of 1:20 to prepare solutions with 10-fold concentrations of a necessary range. Each of these solutions (5 μL) was used for each reaction in 50 μL-scale. Through the dilution series of all compounds, the final DMSO concentration was kept at 0.5%. Conventional tests for the compounds were carried out at a final concentration range from 100 μmol/L to 0.03 μmol/L. but in some cases, tests were carried out at lower concentrations, depending on activity.
# (Measurements of MAPKAP-K2 Enzyme Activities)
# To a 5% DMSO aqueous solution (5 μL) of a test compound, a solution (25 μL) containing a peptide substrate [peptide substrate 60 μmol/L, ATP 20 μmol/L, Tris buffer 60 mmol/L (pH 7.5), EGTA 0.2 mmol/L, β-mercaptoethanol 0.2%, magnesium acetate 20 mmol/L, [γ-33P]ATP 0.1 μCi (specific radioactivity ca. 110 TBq/mmol)] was added. The reaction was initiated by adding a solution (20 μL) containing MAPKAP-K2 enzyme [recombinant human MAPKAP-K2 10 mU, Tris buffer […] (pH 7.5), EGTA 0.1 mmol/L, β-mercaptoethanol 0.1%, BSA 0.1%]. After the reaction was carried out at room temperature for 30 min, 200 mmol/L phosphoric acid (50 μL) was added to quench the reaction, and 90 μL of the reaction mixture was adsorbed on a multiscreen PH plate (Millipore). The plate was washed with 100 mmol/L phosphoric acid. After the plate was dried, 30 μL of MicroScint-O (Perkin-Elmer) was added, and the count per minute was measured on a scintillation counter to determine the inhibitory activity. The peptide substrate was Lys-Lys-Leu-Asn-Arg-Thr-Leu-Ser-Val-Ala.
# • % Reference=(X−B)/(Tot−B)×100 • % Inhibition=100−% Reference • X represents count per minute of the well with a test compound applied. • B represents count per minute of the well without the enzyme. • Tot represents count per minute of the well with only DMSO solvent and no test compound applied. (Calculation of MAPKAP-K2 Inhibitory Activity) • IC50 value represents a concentration of compound at which 50% inhibition is observed.
# recombinant human MAPKAP-K2, sequence (P49137 whole entry): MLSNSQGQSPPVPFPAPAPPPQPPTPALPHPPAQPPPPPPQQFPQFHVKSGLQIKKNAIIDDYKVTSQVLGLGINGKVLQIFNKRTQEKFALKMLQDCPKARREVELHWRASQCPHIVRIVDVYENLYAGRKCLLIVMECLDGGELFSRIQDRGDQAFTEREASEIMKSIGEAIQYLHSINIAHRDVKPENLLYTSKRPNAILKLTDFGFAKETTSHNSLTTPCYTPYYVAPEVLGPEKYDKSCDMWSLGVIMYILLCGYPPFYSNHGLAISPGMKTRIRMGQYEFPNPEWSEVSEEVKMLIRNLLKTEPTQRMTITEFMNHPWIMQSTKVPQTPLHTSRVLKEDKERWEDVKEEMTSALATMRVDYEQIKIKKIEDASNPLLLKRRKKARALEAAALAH
row,SMILES,pIC50
1,"CCOc1ccc(Nc2c(C)c(N[C@H]3CC[C@H](NCCCc4ccccc4)CC3)c(C#N)c3ccnn23)cc1 [Compound 116, 7-[(4-Ethoxyphenyl)amino]-6-methyl-5-({trans-4-[(3-phenylpropyl)amino]cyclohexyl}amino)pyrazolo[1,5-a]pyridine-4-carbonitrile trifluoroacetate salt]",6.00 to 6.70
2,"Cc1nc2ccc(Nc3cc(N[C@H]4CC[C@H](N)CC4)c(C#N)c4ccnn34)cc2s1 [Compound 96, 5-(trans-4-Aminocyclohexylamino)-7-(2-methylbenzothiazol-6-ylamino)pyrazolo[1,5-a]pyridine-4-carbonitrile trifluoroacetate salt]",6.00 to 6.70
3,"CCOc1ccc(Nc2c(C)c(NCCC3CCCCN3)c(C#N)c3ccnn23)cc1 (stereo not drawn) [Compound 113, 7-[(4-Ethoxyphenyl)amino]-6-methyl-5-[(2-(2-piperidyl)ethyl)amino]pyrazolo[1,5-a]pyridine-4-carbonitrile trifluoroacetate salt]",4.00 to 5.00
4,"CCOc1ccc(Nc2c(C)c(NCC3CCCN3)c(C#N)c3ccnn23)cc1 (stereo not drawn) [Compound 114, 7-[(4-Ethoxyphenyl)amino]-6-methyl-5-[(pyrrolidin-2-ylmethyl)amino]pyrazolo[1,5-a]pyridine-4-carbonitrile trifluoroacetate salt]",5.00 to 6.00
5,"CCOc1ccc(Nc2c(C)c(NCCC3CCCN3)c(C#N)c3ccnn23)cc1 (stereo not drawn) [Compound 129, 7-[1(4-Ethoxyphenyl)amino]-6-methyl-5-[2-(pyrrolidin-2-ylethyl)amino]pyrazolo[1,5-a]pyridine-4-carbonitrile trifluoroacetate salt]",5.00 to 6.00
6,"CSc1ccccc1Nc1cc(N[C@H]2CC[C@H](N)CC2)c(C#N)c2ccnn12 [Compound 99, 5-(trans-4-Aminocyclohexylamino)-7-(2-methylthiophenylamino)pyrazolo[1,5-a]pyridine-4-carbonitrile trifluoroacetate salt]",5.00 to 6.00
7,"CCOc1ccc(Nc2c(-c3ccccc3)c(NC3CCCNC3)c(C#N)c3ccnn23)cc1 (stereo not drawn) [Compound 95, 5-(3-Piperidylamino)-7-(4-ethoxyphenylamino)-6-phenylpyrazolo[1,5-a]pyridine-4-carbonitrile trifluoroacetate salt]",6.00 to 6.70
8,"CCOc1ccc(Nc2c(C(C)C)c(N[C@H]3CCCNC3)c(C#N)c3ccnn23)cc1 [Compound 123, 5-[(3S)-3-Piperidylamino]-7-(4-ethoxyphenylamino)-6-(methylethyl)pyrazolo[1,5-a]pyridine-4-carbonitrile]",> 6.70
9,"CCOc1ccc(Nc2c(C)c(NCC3CCCNC3)c(C#N)c3ccnn23)cc1 (stereo not drawn) [Compound 128, 7-[(4-Ethoxyphenyl)amino]-6-methyl-5-[(3-piperidylmethyl)amino]pyrazolo[1,5-a]pyridine-4-carbonitrile trifluoroacetate salt]",5.00 to 6.00
10,"CCOc1ccc(Nc2c(C)c(NC3CNCc4ccccc43)c(C#N)c3ccnn23)cc1 (stereo not drawn) [Compound 127, 7-[(4-Ethoxyphenyl)amino]-6-methyl-5-[4-(1,2,3,4-tetrahydroisoquinolyl)amino]pyrazolo[1,5-a]pyridine-4-carbonitrile trifluoroacetate salt]",5.00 to 6.00
11,"CCOc1ccc(Nc2c(C3CC3)c(N[C@H]3CC[C@H](N)CC3)c(C#N)c3ccnn23)cc1 [Compound 131, 5-(trans-4-Amionocyclohexylamino)-7-(4-ethoxyphenylamino)-6-cyclopropylpyrazolo[1,5-a]pyridine-4-carbonitrile]",> 6.70
12,"N#Cc1c(N[C@H]2CC[C@H](N)CC2)cc(Nc2ccc(-c3ccccc3)cc2)n2nccc12 [Compound 97, 5-(trans-4-Aminocyclohexylamino)-7-(4-biphenylylamino)pyrazolo[1,5-a]pyridine-4-carbonitrile trifluoroacetate salt]",> 6.70
13,"CCOc1ccc(Nc2c(C)c(NC3CCCC(N)C3)c(C#N)c3ccnn23)cc1 (stereo not drawn) [Compound 104, 5-[(3-Aminocyclohexyl)amino]-7-[(4-ethoxyphenyl)amino]-6-methylpyrazolo[1,5-a]pyridine-4-carbonitrile trifluoroacetate salt]",5.00 to 6.00
14,"CCOc1ccc(Nc2c(C)c(N[C@H]3CCCNC3)c(C#N)c3ccnn23)cc1 [Compound 85, 5-[(3S)-3-piperidylamino]-7-(4-ethoxyphenylamino)-6-methylpyrazolo[1,5-a]pyridine-4-carbonitrile]",> 6.70
15,"CCOc1ccc(Nc2c(C)c(N[C@H]3CC[C@H](NCC(C)C)CC3)c(C#N)c3ccnn23)cc1 [Compound 110, 7-[(4-Ethoxyphenyl)amino]-6-methyl-5-(trans-{4-[(2-methylpropyl)amino]cyclohexyl}amino)pyrazolo[1,5-a]pyridine-4-carbonitrile trifluoroacetate salt]",> 6.70
16,"CCOc1ccc(Nc2c(C)c(NCCCNC3CCCCC3)c(C#N)c3ccnn23)cc1 [Compound 120, 5-{[3-(Cyclohexylamino)propyl]amino}-7-[(4-ethoxyphenyl)amino]-6-methylpyrazolo[1,5-a]pyridine-4-carbonitrile trifluoroacetate salt]",5.00 to 6.00

# The remaining lines, values ahead:
row,pIC50,SMILES
1,> 6.70,"Cc1c(N[C@H]2CCCNC2)c(C#N)c2ccnn2c1Nc1ccc2ncsc2c1 [Compound 117, 5-[((3S)-3-Piperidyl)amino]-7-(benzothiazol-6-ylamino)-6-methylpyrazolo[1,5-a]pyridine-4-carbonitrile trifluoroacetate salt]"
2,6.00 to 6.70,"CCOc1ccc(Nc2c(C)c(NCCCCN)c(C#N)c3ccnn23)cc1 [Compound 108, 5-[(4-Aminobutyl)amino]-7-[(4-ethoxyphenyl)amino]-6-methylpyrazolo[1,5-a]pyridine-4-carbonitrile trifluoroacetate salt]"
3,> 6.70,"CCOc1ccc(Nc2c(C(C)C)c(N[C@H]3CC[C@H](N)CC3)c(C#N)c3ccnn23)cc1 [Compound 124, 5-(trans-4-Aminocyclohexylamino)-7-(4-ethoxyphenylamino)-6-(methylethyl)pyrazolo[1,5-a]pyridine-4-carbonitrile]"
4,6.00 to 6.70,"N#Cc1c(N[C@H]2CCCNC2)cc(Nc2ccccc2Cl)n2nccc12 [Compound 93, 5-[(3S)-3-Piperidylamino]-7-(2-chlorophenylamino)pyrazolo[1,5-a]pyridine-4-carbonitrile trifluoroacetate salt]"
5,> 6.70,"CCCc1c(N[C@H]2CC[C@H](N)CC2)c(C#N)c2ccnn2c1Nc1ccc(OCC)cc1 [Compound 122, 5-(trans-4-Aminocyclohexylamino)-7-(4-ethoxyphenylamino)-6-propylpyrazolo[1,5-a]pyridine-4-carbonitrile]"
6,> 6.70,"COCCOc1ccc(Nc2c(C)c(N[C@H]3CCCNC3)c(C#N)c3ccnn23)cc1 [Compound 87, 5-[(3S)-3-Piperidylamino]-7-[4-(2-methoxyethoxy)phenylamino]-6-methylpyrazolo[1,5-a]pyridine-4-carbonitrile trifluoroacetate salt]"
7,> 6.70,"CCOc1ccc(Nc2c(CC)c(N[C@H]3CC[C@H](N)CC3)c(C#N)c3ccnn23)cc1 [Compound 109, 5-(trans-4-Aminocyclohexylamino)-7-(4-ethoxyphenylamino)-6-ethylpyrazolo[1,5-a]pyridine-4-carbonitrile]"
8,4.00 to 5.00,"CCOc1ccc(Nc2c(C)c(NCCCCCCN)c(C#N)c3ccnn23)cc1 [Compound 132, 5-[(6-Amionohexyl)amino]-7-[(4-ethoxyphenyl)amino]-6-methylpyrazolo[1,5-a]pyridine-4-carbonitrile trifluoroacetate salt]"
9,> 6.70,"C=CCc1c(N[C@H]2CCCNC2)c(C#N)c2ccnn2c1Nc1ccc(OCC)cc1 [Compound 86, 5-[(3S)-3-Piperidylamino]-7-(4-ethoxyphenylamino)-6-(2-propenyl)pyrazolo[1,5-a]pyridine-4-carbonitrile trifluoroacetate salt]"
10,> 6.70,"Cc1nc2ccc(Nc3c(C)c(N[C@H]4CCCNC4)c(C#N)c4ccnn34)cc2s1 [Compound 91, 5-[(3S)-3-Piperidylamino]-7-(2-methylbenzothiazol-6-ylamino)-6-methylpyrazolo[1,5-a]pyridine-4-carbonitrile]"
11,> 6.70,"CCOc1ccc(Nc2c(C)c(N[C@H]3CC[C@H](N)CC3)c(C#N)c3ccnn23)cc1 [Compound 102, 5-[(trans-4-Aminocyclohexyl)amino]-7-(4-ethoxyphenylamino)-6-methylpyrazolo[1,5-a]pyridine-4-carbonitrile trifluoroacetate salt]"
